Key:
human CD73 = target: T1, human CD73 (Homo sapiens, UniProt P21589); test: CD73 assay with [2,8-3H]AMP as radioactive substrate; format: biochemical; details: for Ki: soluble human CD73, 5.0 µM [2,8-3H]AMP, read-out: Ki ± SEM
T1 construct: the catalytic domains of the enzymes were amplified and sub-cloned into the expression vector pACGP67 A/B; 9xHis (C); made in house; host or cells: Sf9 insect cells (baculovirus, pACGP67 A/B)
T1 sequence (P21589 27-549 limits assumed): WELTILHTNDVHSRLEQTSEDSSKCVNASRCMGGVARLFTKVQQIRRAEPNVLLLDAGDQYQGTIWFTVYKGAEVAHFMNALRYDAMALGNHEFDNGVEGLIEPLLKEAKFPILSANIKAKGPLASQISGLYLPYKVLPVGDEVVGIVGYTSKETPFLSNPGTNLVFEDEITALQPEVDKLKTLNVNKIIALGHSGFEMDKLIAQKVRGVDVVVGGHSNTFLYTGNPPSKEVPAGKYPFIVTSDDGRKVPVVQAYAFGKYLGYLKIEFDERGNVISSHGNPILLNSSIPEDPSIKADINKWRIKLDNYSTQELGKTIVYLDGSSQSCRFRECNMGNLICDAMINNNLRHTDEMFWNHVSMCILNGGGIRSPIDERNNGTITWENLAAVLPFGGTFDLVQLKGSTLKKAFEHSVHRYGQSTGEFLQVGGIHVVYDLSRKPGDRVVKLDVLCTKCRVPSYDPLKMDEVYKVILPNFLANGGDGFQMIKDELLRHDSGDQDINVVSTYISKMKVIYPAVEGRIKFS
Description: (§1) The cDNAs of the human enzymes NPP1, NPP3, NPP5, CD38 and CD73 (Genbank accession no. NM_006258, NM_005021, NM_021572, NM_ 001775, and NM_002526, respectively) were obtained from Origene (Rockville, USA). Soluble enzymes were produced as previously reported with some modifications ([Lee et al., 2015]; [Junker et al., 2019]). Briefly, the catalytic domains of the enzymes were amplified and sub-cloned into the expression vector pACGP67 A/B modified with the addition of 9 x histidine tag (His-tag) at the C-terminus (except for NPP1). The plasmids were transfected in Sf9 insect cells using Cellfectin™ II Reagent (Thermo Fisher Scientific, MA, USA) and ProEasy™ baculovirus linearized DNA (Cat.#A10S, AB Vector, LLC). Protein expression was conducted for 48 h at 27°C. The signal peptide sequence of the expression vector shuttled the proteins into the supernatant. The supernatant medium was collected, and the enzymes were purified using HisPur™ Ni^2+-NTA spin columns according to the manufacturer’s protocol. The protein concentration was determined by the method previously described by [Lowry et al. (1951)].
The assay was performed as previously described ([Freundlieb et al., 2014]). Briefly, it contained with 0.09 µg/ml of soluble human CD73 recombinantly expressed in Sf9 insect cells as described ([Junker et al., 2019]), the respective test compound, and 5.0 µM [2,8-^3H]AMP (specific activity 7.4 x 108 Bq/mmol, 20 mCi/mmol) as radioactive substrate in assay buffer consisting of 25 mM Tris buffer, 140 mM NaCl, 25 mM NaH2PO4 pH 7.4. The enzymatic reaction was performed for 25 min at 37°C in a shaking water bath. Then, 500 µl of cold precipitation buffer (100 mM LaCl3, 100 mM sodium acetate, pH 4.0) were added to precipitate free phosphate and unconverted [2,8-^3H]AMP. After 30 min on ice, filtration through GF/B glass fiber filters using a cell harvester was used to separate AMP from adenosine. After washing each reaction vial three times with 400 µl of cold (4°C) demineralized water, aliquots of the filtrate were taken, and 5 ml of scintillation cocktail (ULTIMA Gold XR9) was added. The amount of formed adenosine was quantified by liquid scintillation counting (TRICARB 2900 TR, Packard/PerkinElmer).

human NPP3 = target: T2, human NPP3 (Homo sapiens, UniProt O14638); test: NPP3 assay with ϵ-NAD+ as substrate; format: biochemical; details: for inhibition at 10 µM: 10 µM test compound; for Ki: 20 µM ϵ-NAD+, read-out: Ki ± SEM
T2 construct: the catalytic domains of the enzymes were amplified and sub-cloned into the expression vector pACGP67 A/B; 9xHis (C); made in house; host or cells: Sf9 insect cells (baculovirus, pACGP67 A/B)
T2 sequence (O14638 31-875 limits assumed): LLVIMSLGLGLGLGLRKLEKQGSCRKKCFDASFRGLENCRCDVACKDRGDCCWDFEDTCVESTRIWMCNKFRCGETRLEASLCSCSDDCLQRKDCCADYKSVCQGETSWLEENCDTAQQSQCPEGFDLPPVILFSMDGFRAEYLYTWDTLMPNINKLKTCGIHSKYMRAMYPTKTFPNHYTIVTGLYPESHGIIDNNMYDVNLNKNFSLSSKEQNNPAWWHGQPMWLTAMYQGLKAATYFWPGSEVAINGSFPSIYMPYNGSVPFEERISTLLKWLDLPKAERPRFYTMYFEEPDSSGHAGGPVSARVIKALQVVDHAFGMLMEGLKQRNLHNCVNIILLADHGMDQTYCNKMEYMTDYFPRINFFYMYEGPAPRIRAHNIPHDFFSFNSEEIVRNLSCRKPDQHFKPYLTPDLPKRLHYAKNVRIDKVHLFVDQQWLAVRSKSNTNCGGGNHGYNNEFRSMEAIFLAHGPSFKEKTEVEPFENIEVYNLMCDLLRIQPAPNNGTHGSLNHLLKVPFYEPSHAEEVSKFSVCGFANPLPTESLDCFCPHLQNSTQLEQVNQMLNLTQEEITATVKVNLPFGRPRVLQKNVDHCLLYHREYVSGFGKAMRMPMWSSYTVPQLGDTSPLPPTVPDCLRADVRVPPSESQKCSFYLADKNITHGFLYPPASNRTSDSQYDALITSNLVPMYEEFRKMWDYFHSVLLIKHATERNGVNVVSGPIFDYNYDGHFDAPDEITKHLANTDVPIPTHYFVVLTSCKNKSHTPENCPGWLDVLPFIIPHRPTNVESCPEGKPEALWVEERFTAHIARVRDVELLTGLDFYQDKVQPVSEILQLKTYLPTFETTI
Description: as §1
The assays were performed in analogy to published procedures ([Blacher et al., 2015]). The enzymatic activity of human NPP3 and NPP5 (soluble forms expressed in insect cells and purified as previously described ([Lee et al., 2015]; [Lopez et al., 2020]) was measured using 1,N^6-etheno-nicotinamide adenine dinucleotide (ϵ-NAD^+) as a substrate, which is hydrolyzed to fluorescent 1,N^6-etheno-AMP (ϵ-AMP). The enzymatic reactions were performed in reaction buffer [10 mM N-cyclohexyl-2-aminoethanesulfonic acid (CHES), 2 mM CaCl2, and 1 mM MgCl2, pH 9.0 in H2O]. Purified NPP3 (90 ng) or NPP5 (400 ng), 20 µM of ϵ-NAD^+ and 10 µM of the test compound were incubated for 30 min at 37°C. The relative fluorescence at 270 nm excitation and 420 nm emission was detected by a fluorescence microplate reader (Flexstation, Medical Devices LLC. USA, Softmax Pro software to collect the data).

Row | fold higher potency at CD73 compared to CD39 (human CD73; CD73 Ki vs CD39 Ki) [fold] | Compound | Ki (human CD73) [µM] | inhibition at 10 µM (human NPP3) [%] | Ki (human NPP3) [µM]
1 |  | CCN(CC)c1ncnc2c1ncn2[C@@H]1O[C@H](COP(=O)(O)OP(=O)(O)C(Br)(Br)P(=O)(O)O)[C@@H](O)[C@H]1O [ARL67156, (Dibromo((((((2R,3S,4R,5R)-5-(6-(diethylamino)-9H-purin-9-yl)-3,4-dihydroxytetrahydrofuran-2-yl)methoxy)-(hydroxy)-phosphoryl)oxy)(hydroxy)phosphoryl)methyl)-phosphonic Acid, reference compound] | 0.451 ± 0.121 | 13 | > 10
2 |  | CCCCSc1nc2c(N)ncnc2n1[C@@H]1O[C@H](COP(=O)(O)OP(=O)(O)C(Br)(Br)P(=O)(O)O)[C@@H](O)[C@H]1O [Compound 31, (((((((2R,3S,4R,5R)-5-(6-Amino-8-(butylthio)-9H-purin-9-yl)-3,4-dihydroxytetrahydrofuran-2-yl)methoxy)(hydroxy)-phosphoryl)oxy)(hydroxy)phosphoryl)dibromomethyl)-phosphonic Acid] | 0.831 ± 0.274 | 8 | > 10
3 | 8 | CCCCNc1nc2c(NC)ncnc2n1[C@@H]1O[C@H](COP(=O)(O)OP(=O)(O)C(Br)(Br)P(=O)(O)O)[C@@H](O)[C@H]1O [Compound 33, (Dibromo((((((2R,3S,4R,5R)-5-(8-(butylamino)-6-(methylamino)-9H-purin-9-yl)-3,4-dihydroxy-tetrahydrofuran-2-yl)methoxy)(hydroxy)phosphoryl)oxy)-(hydroxy)phosphoryl)methyl)-phosphonic Acid] | 0.185 ± 0.074 | 8 | > 10

From publication PMC7508162 (Frontiers in Pharmacology, 2020)
